Results reported in patent US12534762B2, “Treating atopic dermatitis by targeting the WNT pathway” (Children's Medical Center Corporation, priority 2018, dated 2026).

What was measured:
Xenopus embryos = test: MO specificity, Western blotting of protein synthesis from co-injected mRNA; type: in vivo, Xenopus laevis; conditions: stage 10
Procedure: (§1) mRNA and Morpholino injection. For animal cap assays, indicated mRNAs (Tmem79, 100 and 200 pg; Xwnt8, 10 pg; β-catenin 50 pg; Xnr1, 250 pg; BMP4, 100 pg) were injected into the animal pole at 4-cell stage, and animal caps were dissected at stage 9 (in the case of Xwnt8, Xnr1, BMP4) or at stage 8.5 and treated with recombinant proteins (bFGF, 100 ng/ml; hShh, 1.5 ng/mL) until stage 10 before RT-PCR. For Neural induction assay the MO (20 ng) for Tmem79, Usp8 or β-catenin was injected into the animal pole at 4-cell stage, and animal caps were dissected at stage 9 and treated with recombinant protein Noggin (500 ng/mL) until stage 18 before RT-PCR. To examine Tmem79 and Usp8 MOs specificity, […] of mRNA of Xenopus Tmem79, mouse Tmem79, Xenopus Usp8 or xmutUsp8 (Xenopus Usp8 mutated for mismatches with the MO) were injected with a control MO, Tmem79 MO or Usp8 MO (20 ng) into the animal pole at the 2-cell stage and cultured til stage 10 for Western blotting. To knockdown the endogenous xTmem79 or xUsp8, 20 ng of control MO, Tmem79 MO or Usp8 MO were injected into two dorso-animal blastomeres at the 8-cell stage and the phenotype was scored at stage 35. To rescue the Tmem79 MO phenotype, […] of mTmem 79, 20 ng of Usp8 MO or 10 ng of β-catenin MO was injected together with Tmem79 MO (20 ng). RT-PCR primers and Morpholinos. […]

[1] = tested on: animal pole explants of Xenopus embryos; test: Neural induction assay by Noggin in animal pole explants (RT-PCR); design: species or system Xenopus laevis; conditions: co-injected with Tmem79MO
Procedure: as §1

Substance: Usp8 MO: morpholino against Xenopus Usp8, SEQ ID NO: 26 (antisense GCTGCAAATTCTCCTCTCTTATCAA; all phosphorodiamidate morpholino (PMO); listed as Xenopus laevis)
- protein synthesis from the Xenopus Usp8 (xUsp8) mRNA (Xenopus embryos): inhibited
- neural induction by Noggin abolished by Tmem79MO: effect of co-injection [1]: rescued
